These results are taken from PMC11984924, “Dipeptidic Phosphonates: Potent Inhibitors of Pseudomonas aeruginosa Elastase B Showing Efficacy in a Murine Keratitis Model” (Advanced Science, 2025).

Test [1] deals with P. aeruginosa strain PA54 keratitis. Kind of test: Murine Pseudomonas keratitis model. Type of test: in vivo, mouse. As to the method:
Based on our previous findings on target engagement in a murine pneumonia model in combination with a standard‐of‐care antibiotic,^[ [30] ^] we applied the dipeptide (R)‐30 alone and in combination with the commonly used antibiotic meropenem.^[ [9] ^] The keratitis model was carried out using aged female C57BL/6 mice, as previously published.^[ [37] ^] For infection, 5*10^7 colony forming units (CFUs) of PA54 were topically administered on denuded, mechanically harmed corneas. Treatments with meropenem, (R)‐30, or meropenem in combination with (R)‐30 were performed every 8 h for 72 h (first treatment at 6 h post infection). Each of the in total nine 5 µL‐doses contained 1 mg/mL (R)‐30 and/or 0.5 mg mL^−1 meropenem. Sham‐treated mice received 5 µL‐doses of the vehicle (0.9% saline and 1% DMSO) at the time points indicated above, and uninfected eyes received no treatment. […]
(§1) Animals: The animal experiments were approved by Saarland University’s Animal Welfare Committee (Application number: 17/2021) and conducted in accordance with German and European recommendations and guidelines for the ethical use of animals. The laboratory animals were all C57BL/6N female eight to eleven months old mice. Keeping in specific pathogen-free conditions was provided. Unlimited access to water and show was secured.
(§2) Temperature was closely maintained around 22 °C and relative air humidity around 50%. Light and darkness alternated at twelve-hour intervals. All laboratory animals were purchased from Charles River GmbH, Sulzfeld, Germany.
P. aeruginosa: The P. aeruginosa strain PA54 was employed to induce an experimental bacterial keratitis in the aforementioned C57BL/6N mice. The strain PA54 was isolated from human infections and collected at Saarland University Medical Center’s Institute for Medical Microbiology and Hygienics (IMMH) in 2009. According to Magiorakos et al., PA54 can be classified as multidrug-resistant due to its lacking sensibility to the anti-pseudomonal cephalosporins ceftazidime and cefepime, the anti-pseudomonal fluoroquinolones ciprofloxacin and levofloxacin, the […] fosfomycin, and the aminoglycoside gentamicin.[18] The minimum inhibitory concentration (MIC) of the reserve antibiotic meropenem (meropenem trihydrate, Sigma) was 1 µg/mL (sensitivity limit = 2 µg/mL). The exoU- and exoT-positivity of the PA54 strain, foregrounds its keratitogenic potential.
Inoculum: The P. aeruginosa strain PA54 is routinely grown overnight on blood agar (TrypticaseTM Soy Agar, 5% sheep blood, BD, Heidelberg, Germany) at 37 °C. To obtain a stationary phase cell inoculum, a freshly grown colony was inoculated in tryptic soy broth (TSB; BD, Heidelberg, Germany) and cultured at 37 °C and 150 rounds per minute (rpm) for 16 h.
Then, 2 mL were centrifuged at 13,200 rpm at rt for 2 min, whereupon cells were resuspended in spent medium to an OD600 of 10 (∼1×1010 CFU/mL). Short storage on ice followed, before the infection procedure started.
Infection Procedure: Anesthesia and infection were performed as previously published. Briefly, fentanyl (Hameln Pharma Plus GmbH, Hameln, Germany), midazolam hydrochloride (Midazolam-Hameln, 5 mg/mL, Hameln pharma GmbH, Germany) and medetomidine hydrochloride (Domitor, Orion Corporation, Espoo, Finland) were dissolved in 0.9% NaCl (NaCl 0.9%, Ecotainer 500 mL, B. Braun, Melsungen, Germany), dosed at 0.05 mg/kg, 5 mg/kg and 0.5 mg/kg body weight, respectively, and applied by intraperitoneal injection. Analgesia (Carprofen, 5 mg/kg body weight, Zoetis Deutschland GmbH, Berlin, Germany) was ap plied subcutaneously. Lacrimation was stopped with 10 µL of a 0.6% acetylcysteine solution (Pharmacy of Saarland University Hospitals, Homburg, Germany). Local analgesia (0.5% proxymetacaine hydrochloride, Proparakain -POS Augentropfen, Ursapharm Arzneimitt el GmbH, Saarbrücken, Germany) was eye-dropped and removed after 60 seconds. The blunt […]

The subject of test [2] is P. aeruginosa strain PA54. Kind of test: MIC against strain PA54. The settings on record: Pseudomonas aeruginosa, read-out: minimum inhibitory concentration (MIC). The format is cell-based. The procedure: The analysis of fold change and copy numbers was conducted through Microsoft Excel, and the data were graphically represented using GraphPad Prism 9.
Table S17: Primers and probes applied in this study (designs were carried out using Geneious Prime bioinformatics […]
Gene Forward primer Reverse Primer Probe Description […]
lasB GAACA CAG CCAA aeruginosa […]
GACTTC CCTG CCGA sigma factor RpoS […]
rho AAC GTTG TCATCGG termination factor
as §1, §2
P. aeruginosa: The P. aeruginosa strain PA54 was employed to induce an experimental bacterial keratitis in the aforementioned C57BL/6N mice. The strain PA54 was isolated from human infections and collected at Saarland University Medical Center’s Institute for Medical Microbiology and Hygienics (IMMH) in 2009. […]

The next test relates to A549 cells. Kind of test: Cytotoxicity A549. The format is cell-based. As to conditions: Homo sapiens, A549, read-out: A549 % inhibition at 100 µM (metabolic activity), 48 hours. As to the method:
(§3) HepG2 (human hepatocellular carcinoma), HEK293 (human embryonal kidney) and A549
(§4) (human lung carcinoma) cells (2x10^5 cells per well) were seeded in 24-well in flat-bottomed
(§5) plates. Culturing of cells, incubations and OD measurements were performed as described
(§6) previously with small modifications.[14] Twenty-four hours after seeding the cells the incubation
(§7) was started by the addition of compounds in a final DMSO concentration of 1%. The living cell
(§8) mass was determined after 48 hours in a PHERAstar microplate reader (BMG labtech,
(§9) Ortenberg, Germany). Two independent measurements were performed for each compound.

The next test addresses T1, LasB (Pseudomonas aeruginosa, UniProt Q02RJ6).
T1 construct: made in house
As to the kind of experiment: In vitro LasB inhibition assay. The settings on record: IC50 LasB inhibition. Type of test: biochemical. As to the method:
(§10) 3.1 In vitro inhibition assays
LasB was expressed and purified as described previously.[3] In vitro inhibition assays (LasB,
MMPs, TACE). All in vitro inhibition assays were performed as described previously.[10] […]
Fluorescence signals were measured using a CLARIOstar plate reader (BMG
Labtech, Ortenberg, Germany). […]

Test [3] relates to Pseudomonas aeruginosa strain PA14. As to the kind of experiment: Antibacterial effect on P. aeruginosa PA14 growth. The format is cell-based. The settings on record: PA14, read-out: P. aeruginosa PA14 % inhibition of growth at 100 µM, 18 h, 37 °C. As to the method: Table S14: Food consumption after treatment with (R)-30.
Table S15: Body and organ weights (gram) after treatment with (R)-30.
3.12 Antibacterial effects
As start OD600 of Pseudomonas aeruginosa strain PA14 we used 0.03 in a total volume of 200
µL in lysogeny broth containing the compounds predissolved in DMSO (max. 1%). Final
compound concentrations prepared from serial dilutions ranged from 3.125 to 100 µM (double
values for each concentration). The ODs were determined after addition of the compounds and
again after incubation for 18 h at 37 °C and 200 rpm in 96 well plates (Sarstedt, Nümbrecht,
Germany) using a FLUOStar Omega (BMG labtech, Ortenberg, Germany). Given percent (%)
inhibition values are means of at least two independent determinations. To obtain the values
for a given compound, their ODs were compared to those of DMSO controls. Concerning the […]

The next test has as its target T2, TACE (ADAM17) (Homo sapiens, UniProt P78536).
T2 construct: purchased Sigma-Aldrich (Saint Louis, MO)
Kind of test: TACE (ADAM17) inhibition (off-target). Type of test: biochemical. As to conditions: read-out: TACE (ADAM17) % inhibition at 100 µM. The procedure:
as §10
(§11) LasB was expressed and purified as described previously.[3] In vitro inhibition assays (LasB, MMPs, TACE). All in vitro inhibition assays were performed as described previously.[10] TACE inhibitor screening kits were purchased from Sigma-Aldrich (Saint Louis, MO). MMPs along with the SensoLyte 520 Generic MMP Activity Kit Fluorimetric were purchased from AnaSpec (Fremont, CA, USA). The assays were performed according to the guidelines of the respective manufacturer. Fluorescence signals were measured using a CLARIOstar plate reader (BMG Labtech, Ortenberg, Germany). […]
(§12) 3.8 Test against zinc metalloproteases MMP1–3 and TACE (ADAM17), and testing of
(§13) We selected a panel of human off -targets, including three human matrix metalloproteases (MMP-1, -2 and -3) and TACE (ADAM-17). These assays were performed as described previously.[3] The TACE inhibitor screening kit was purchased from Sigma -Aldrich (Saint Louis, MO). MMPs along with the SensoLyte 520 Generic MMP Activity Kit Fluorimetric were purchased from AnaSpec (Fremont, CA, USA). The assays were performed according to the guidelines of the respective manufacturer. Fluorescence signals were measured using a CLARIOstar plate reader (BMG Labtech, Ortenberg, Germany). […]
(§14) Table S6: Percent (%) inhibition of three MMPs (1 –3) and TACE (ADAM17) in presence of selected LasB inhibitors at 100 µM. Results are means and SD of at least two independent experiments. […]
(§15) Compound [% inhibition at [% inhibition at [% inhibition at [% inhibition at 100

Another test has as its target T3, MMP-1 (Homo sapiens, UniProt P03956).
T3 construct: purchased AnaSpec (Fremont, CA, USA)
T3 sequence (P03956 100-469): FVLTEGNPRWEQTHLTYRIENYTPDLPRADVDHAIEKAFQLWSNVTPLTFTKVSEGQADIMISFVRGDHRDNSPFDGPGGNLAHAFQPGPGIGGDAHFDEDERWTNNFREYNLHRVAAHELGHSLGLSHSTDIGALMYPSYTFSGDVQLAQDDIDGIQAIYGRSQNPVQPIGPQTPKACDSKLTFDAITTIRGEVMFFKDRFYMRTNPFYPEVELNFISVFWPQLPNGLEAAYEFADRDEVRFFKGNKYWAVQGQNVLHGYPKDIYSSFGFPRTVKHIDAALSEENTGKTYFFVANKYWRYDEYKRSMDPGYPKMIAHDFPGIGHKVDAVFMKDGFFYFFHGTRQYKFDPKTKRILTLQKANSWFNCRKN
As to the kind of experiment: MMP-1 inhibition (off-target). The settings on record: read-out: MMP-1 % inhibition at 100 µM. Type of test: biochemical. The procedure: as §10, §11, §12, §13, §14, §15

A further test relates to HEK293 cells. As to the kind of experiment: Cytotoxicity HEK293. Type of test: cell-based. The settings on record: Homo sapiens, HEK293, read-out: HEK293 % inhibition at 100 µM (metabolic activity), 48 hours. As to the method: as §3, §4, §5, §6, §7, §8, §9
The target in another test is T4, MMP-3 (Homo sapiens, UniProt P08254).
T4 construct: purchased AnaSpec (Fremont, CA, USA)
T4 sequence (P08254 100-477): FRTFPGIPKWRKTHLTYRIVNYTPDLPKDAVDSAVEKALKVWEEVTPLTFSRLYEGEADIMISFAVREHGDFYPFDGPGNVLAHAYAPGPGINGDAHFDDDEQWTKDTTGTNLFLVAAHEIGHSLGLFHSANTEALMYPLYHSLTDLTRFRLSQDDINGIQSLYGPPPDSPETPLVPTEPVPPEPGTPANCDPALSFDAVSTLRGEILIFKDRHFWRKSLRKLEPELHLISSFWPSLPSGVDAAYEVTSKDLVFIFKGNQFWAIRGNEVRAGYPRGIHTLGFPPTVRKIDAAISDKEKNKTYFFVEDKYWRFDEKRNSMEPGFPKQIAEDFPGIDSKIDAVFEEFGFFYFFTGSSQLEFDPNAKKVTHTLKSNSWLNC
As to the kind of experiment: MMP-3 inhibition (off-target). The format is biochemical. As to conditions: read-out: MMP-3 % inhibition at 100 µM. As to the method:
as §10, §11, §12, §13, §14, §15

The next test deals with T5, MMP-2 (Homo sapiens, UniProt P08253).
T5 construct: purchased AnaSpec (Fremont, CA, USA)
T5 sequence (P08253 110-660): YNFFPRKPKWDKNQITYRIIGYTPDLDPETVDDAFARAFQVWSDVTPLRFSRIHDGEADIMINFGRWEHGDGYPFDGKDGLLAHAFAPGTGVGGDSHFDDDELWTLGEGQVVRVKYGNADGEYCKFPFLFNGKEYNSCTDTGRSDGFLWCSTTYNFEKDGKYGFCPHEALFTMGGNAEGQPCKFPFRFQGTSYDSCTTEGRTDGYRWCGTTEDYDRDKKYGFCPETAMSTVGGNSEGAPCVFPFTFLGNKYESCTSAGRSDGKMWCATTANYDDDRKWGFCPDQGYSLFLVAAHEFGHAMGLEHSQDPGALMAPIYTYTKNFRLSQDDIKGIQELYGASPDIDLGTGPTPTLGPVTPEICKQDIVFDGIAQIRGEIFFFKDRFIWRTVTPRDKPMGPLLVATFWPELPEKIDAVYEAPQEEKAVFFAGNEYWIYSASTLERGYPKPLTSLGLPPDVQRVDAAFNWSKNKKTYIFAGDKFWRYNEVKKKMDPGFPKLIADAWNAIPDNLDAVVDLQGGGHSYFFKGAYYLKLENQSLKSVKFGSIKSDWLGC
As to the kind of experiment: MMP-2 inhibition (off-target). As to conditions: read-out: MMP-2 % inhibition at 100 µM. The format is biochemical. The procedure: 3.1 In vitro inhibition assays […]
MMPs, TACE). All in vitro inhibition assays were performed as described previously.[10] TACE inhibitor screening kits were purchased from Sigma-Aldrich (Saint Louis, MO). MMPs along with the SensoLyte 520 Generic MMP Activity Kit Fluorimetric were purchased from AnaSpec (Fremont, CA, USA). The assays were performed according to the guidelines of the respective manufacturer. Fluorescence signals were measured using a CLARIOstar plate reader (BMG Labtech, Ortenberg, Germany). […]
as §12, §13, §14, §15

The next test relates to HepG2 cells. As to the kind of experiment: Cytotoxicity HepG2. Type of test: cell-based. The settings on record: Homo sapiens, HepG2, read-out: HepG2 % inhibition at 100 µM (metabolic activity), 48 hours. The procedure: as §3, §4, §5, §6, §7, §8, §9

Values after ≈ are worked out from the molar mass of the structure shown. Some results are limits rather than exact numbers.

T1 sequence (Q02RJ6 198-498): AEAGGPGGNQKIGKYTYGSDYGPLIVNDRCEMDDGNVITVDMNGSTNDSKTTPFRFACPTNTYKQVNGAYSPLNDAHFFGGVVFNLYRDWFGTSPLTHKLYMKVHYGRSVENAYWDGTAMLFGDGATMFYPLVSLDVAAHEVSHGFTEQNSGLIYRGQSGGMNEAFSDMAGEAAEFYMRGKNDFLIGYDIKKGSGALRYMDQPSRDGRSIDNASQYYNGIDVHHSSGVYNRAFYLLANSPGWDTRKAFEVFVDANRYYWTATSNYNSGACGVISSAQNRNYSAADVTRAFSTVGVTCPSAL
T2 sequence (P78536 215-824): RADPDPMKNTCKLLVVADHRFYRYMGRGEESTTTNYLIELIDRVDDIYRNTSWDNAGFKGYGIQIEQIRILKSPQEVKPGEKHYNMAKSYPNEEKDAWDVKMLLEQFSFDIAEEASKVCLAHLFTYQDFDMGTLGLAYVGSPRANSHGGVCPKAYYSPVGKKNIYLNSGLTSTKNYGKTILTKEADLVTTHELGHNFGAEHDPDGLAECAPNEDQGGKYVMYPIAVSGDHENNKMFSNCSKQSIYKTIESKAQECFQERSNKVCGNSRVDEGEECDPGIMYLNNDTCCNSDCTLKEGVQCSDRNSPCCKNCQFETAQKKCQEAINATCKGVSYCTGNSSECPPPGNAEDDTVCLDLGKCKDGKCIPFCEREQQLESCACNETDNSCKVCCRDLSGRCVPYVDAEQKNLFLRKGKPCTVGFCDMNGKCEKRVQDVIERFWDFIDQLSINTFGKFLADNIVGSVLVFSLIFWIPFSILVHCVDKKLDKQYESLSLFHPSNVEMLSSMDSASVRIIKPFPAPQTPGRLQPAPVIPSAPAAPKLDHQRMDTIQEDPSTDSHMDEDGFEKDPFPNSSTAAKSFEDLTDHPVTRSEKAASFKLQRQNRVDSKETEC

For `C[C@@H](O)[C@H]1C(=O)N2C(C(=O)O)=C(S[C@@H]3CN[C@H](C(=O)N(C)C)C3)[C@H](C)[C@H]12` [meropenem, reference compound], the “IL‐1β levels in eye homogenate” value in test [1] (day 3 post infection, compared to sham treatment / uninfected eyes) is listed as “almost on the level of this cytokine seen in uninfected eyes”. In addition, the “KC levels in eye homogenate” value in test [1] (day 3 post infection, compared to uninfected eyes) is on record as “significantly higher amounts of this chemokine”. The “reduction of bacterial load in the eye (median)” value in test [1] (day 3 post infection, whole-eye homogenates) worked out at 64 fold. The “median clinical keratitis score” value in test [1] (day three post infection, topical every 8 h for 72 h, 1 mg/mL (R)-30 and/or 0.5 mg/mL meropenem) is reported as 3. Besides, in [2], the MIC came to 1 µg/mL (≈ 2.61 µM).

For the compound `CC(C)CC(C(=O)N[C@H](C(=O)Nc1ccc(C(=O)C(F)(F)F)cc1)C(C)C)P(=O)(O)O` (some centres unmarked) [compound 31], the inhibition at 100 µM with A549 cells is under 10%; in [3], under 10%; at TACE (ADAM17), under 10%; at MMP-1, under 10%; in the test with HEK293 cells it was 19 ± 5%; at MMP-3 it was under 10%. In addition, the inhibition at 100 µM at MMP-2 and in the test with HepG2 cells was under 10% in each case. On LasB, inhibition was half-maximal at 21.7 ± 0.6 nM (IC50).
